Measured values: patent US5283245A, “Heterocyclic thiazole derivatives and pharmaceutical compositions comprising said derivatives” (Imperial Chemical Industries PLC, priority 1989, dated 1994)

Experiments:
5-LO [1] = target: T1, 5-LO (Homo sapiens, UniProt P09917); test: heparinised human blood challenged with calcium ionophore A23187, LTB4 radioimmunoassay (test b); type: cell-based; settings: A23187 challenge
T1 construct: incubating a test compound with heparinised human blood; endogenous in cells; host or cells: heparinised whole human blood (leukocytes, by own knowledge)
T1 sequence (P09917 1-674): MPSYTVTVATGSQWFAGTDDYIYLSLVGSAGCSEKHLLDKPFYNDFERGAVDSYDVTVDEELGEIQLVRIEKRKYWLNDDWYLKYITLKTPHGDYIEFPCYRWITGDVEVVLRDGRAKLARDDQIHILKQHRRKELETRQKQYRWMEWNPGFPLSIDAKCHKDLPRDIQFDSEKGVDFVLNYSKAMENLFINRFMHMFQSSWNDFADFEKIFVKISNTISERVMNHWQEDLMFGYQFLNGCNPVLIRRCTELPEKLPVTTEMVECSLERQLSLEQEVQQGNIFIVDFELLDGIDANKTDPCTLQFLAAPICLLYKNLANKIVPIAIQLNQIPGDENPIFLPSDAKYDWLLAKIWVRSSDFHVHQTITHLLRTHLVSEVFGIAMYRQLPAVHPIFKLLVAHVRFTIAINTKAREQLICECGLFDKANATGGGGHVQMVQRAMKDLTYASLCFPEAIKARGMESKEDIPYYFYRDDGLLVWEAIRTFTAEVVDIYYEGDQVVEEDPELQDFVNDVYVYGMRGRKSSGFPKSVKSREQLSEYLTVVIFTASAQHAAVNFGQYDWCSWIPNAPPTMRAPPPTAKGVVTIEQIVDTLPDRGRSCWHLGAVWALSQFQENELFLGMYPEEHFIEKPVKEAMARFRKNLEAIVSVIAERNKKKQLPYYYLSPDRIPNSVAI
Procedure: (§1) b) An in vitro assay system involving incubating a test compound with heparinised human blood, prior to challenge with the calcium ionophore A23187 and then indirectly measuring the inhibitory effects on 5-LO by assaying the amount of LTB4 using the specific radioimmunoassay described by Carey and Forder (F. Carey and R. A. Forder, Brit. J. Pharmacol. 1985, 84, 34P) which involves the use of a protein-LTB4 conjugate produced using the procedure of Young et alia (Prostaglandins, 1983, 26(4),605-613). The effects of a test compound on the enzyme cyclooxygenase (which is involved in the alternative metabolic pathway for arachidonic acid and gives rise to prostaglandins, thromboxanes and related metabolites) may be measured at the same time using the specific radioimmunoassay for thromboxane B2 (TxB2) described by Carey and Forder (see above). This test provides an indication of the effects of a test compound against 5-LO and also cyclooxygenase in the presence of blood cells and proteins. It permits the selectivity of the inhibitory effect on 5-LO or cyclooxygenase to be assessed.

cyclooxygenase = target: T2, cyclooxygenase (Homo sapiens, UniProt P23219); test: heparinised human blood challenged with calcium ionophore A23187, TxB2 radioimmunoassay (test b); type: cell-based; settings: A23187 challenge
T2 construct: incubating a test compound with heparinised human blood; endogenous in cells; host or cells: heparinised whole human blood (platelets, by own knowledge)
T2 sequence (P23219 24-599): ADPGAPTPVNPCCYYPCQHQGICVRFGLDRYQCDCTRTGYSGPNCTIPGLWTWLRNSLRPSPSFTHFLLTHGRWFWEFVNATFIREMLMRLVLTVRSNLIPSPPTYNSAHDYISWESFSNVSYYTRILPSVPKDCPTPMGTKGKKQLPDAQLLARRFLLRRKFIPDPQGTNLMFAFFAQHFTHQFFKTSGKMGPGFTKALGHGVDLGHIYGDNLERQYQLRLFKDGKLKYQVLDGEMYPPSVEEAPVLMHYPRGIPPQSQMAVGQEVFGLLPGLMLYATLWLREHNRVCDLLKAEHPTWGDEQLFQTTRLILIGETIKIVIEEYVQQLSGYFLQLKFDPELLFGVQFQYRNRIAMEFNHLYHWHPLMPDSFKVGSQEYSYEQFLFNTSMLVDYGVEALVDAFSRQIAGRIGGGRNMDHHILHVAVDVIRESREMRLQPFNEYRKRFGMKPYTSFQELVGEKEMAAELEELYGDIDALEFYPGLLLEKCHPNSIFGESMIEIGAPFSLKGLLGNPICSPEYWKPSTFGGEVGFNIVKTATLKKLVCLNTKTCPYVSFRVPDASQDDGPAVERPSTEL
Procedure: as §1

5-LO [2] = target: T3, 5-LO (Rattus norvegicus, UniProt P12527); test: ex vivo assay: administration of compound, blood collection, A23187 challenge, LTB4 radioimmunoassay (test c); type: in vivo; settings: oral administration
T3 construct: blood collection, heparinisation, challenge with A23187 and radioimmunoassay of LTB4 and TxB2; endogenous in cells
T3 sequence (P12527 1-673): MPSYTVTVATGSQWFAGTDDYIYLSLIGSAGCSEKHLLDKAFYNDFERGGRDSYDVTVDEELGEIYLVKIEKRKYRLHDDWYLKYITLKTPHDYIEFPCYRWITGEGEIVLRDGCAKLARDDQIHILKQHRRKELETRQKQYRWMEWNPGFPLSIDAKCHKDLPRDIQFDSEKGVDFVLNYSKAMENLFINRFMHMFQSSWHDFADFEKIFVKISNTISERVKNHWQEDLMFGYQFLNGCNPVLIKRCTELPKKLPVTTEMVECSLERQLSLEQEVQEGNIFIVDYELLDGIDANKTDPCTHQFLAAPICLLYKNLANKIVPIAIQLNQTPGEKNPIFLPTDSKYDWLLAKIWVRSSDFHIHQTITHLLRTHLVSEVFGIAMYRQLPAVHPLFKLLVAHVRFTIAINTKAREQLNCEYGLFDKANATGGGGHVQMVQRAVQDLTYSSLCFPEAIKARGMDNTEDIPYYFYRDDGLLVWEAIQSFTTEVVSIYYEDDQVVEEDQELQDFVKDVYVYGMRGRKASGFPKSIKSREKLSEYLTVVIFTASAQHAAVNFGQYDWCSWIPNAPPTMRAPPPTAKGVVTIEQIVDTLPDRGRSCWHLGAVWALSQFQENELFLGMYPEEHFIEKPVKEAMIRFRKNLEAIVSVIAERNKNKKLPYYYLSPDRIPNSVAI

## CCC(OC)(c1cccc(OCC#Cc2ccccn2)c1)c1nccs1 (stereo not drawn) [2-[1-[3-(3-(2-pyridyl)prop-2-yn-1-yloxy)phenyl]-1-methoxypropyl]thiazole]
5-LO [1]
  IC50: 700 nM
cyclooxygenase
  IC50: > 40000 nM
5-LO [2]
  ED50: 50 mg/kg
